Reference: patent US20100004333A1, “COMPOSITIONS AND METHODS FOR TREATING CARDIOVASCULAR DISORDERS” (priority 2004, published 2010)
Marks after values point to notes of the source that are not given here.

Key:
apoE−/− mice [1] = assay: Atherosclerotic lesion size (morphometry) in apoE−/− mice on high fat diet with or without probucol; assay type: in vivo; details: 24 weeks
Text: Male C57BL/6J mice, homozygous for the disrupted apoE gene (apoE−/−) and originally purchased from Jackson Laboratories (Bar Harbor, Me.), were used at 8-10 weeks of age and then fed for 24 weeks ad libitum a high fat diet containing 21.2 (w/w) fat and 0.15% (w/w) cholesterol (specifications of the Harlan Teklad diet TD88137), without (controls, 103 mice) or with probucol (1% w/w, 87 mice), as described in Arteriosclerosis Thrombosis and Vascular Biology 2000, 20:e26-e33. The local animal ethics committee approved the study.
Procedures were carried out as described in Arteriosclerosis Thrombosis and Vascular Biology 2000, 20:e26-e33. For biochemistry, hearts and aortas past the femoral bifurcation were excised carefully (n=86 and 70 for control and probucol animals, respectively), cleaned, placed immediately in ice-cold buffer containing protease inhibitors and antibiotics, and then stored at −80° C. For histology, separate mice (n=17 each, for controls and probucol) were perfusion fixed, the hearts and aortas dissected and processed for blinded morphometry at the sinus, arch and descending thoracic and abdominal aorta, precisely as described in Arteriosclerosis Thrombosis and Vascular Biology 2000, 20:e26-e33. Mean areas from thoracic and abdominal aortas were similar and therefore combined and presented as a single value. For histology, sections at the sinus were taken ˜200 μm from the first appearance of the leaflets. Sections at the thoracic and abdominal aorta were taken at the branch point of the 3rd pair of intra-costal arteries and the celiac artery, respectively.
Data on lesion size are presented as mean±SEM and the effects of probucol analysed by the Mann-Whitney U-test. Biochemical parameters were compared using a one-way ANOVA or Mann-Whitney U-test. Data on total cell numbers, macrophages and collagen content are expressed as mean±SD, and significant differences between means evaluated using the Student's t-test. Statistical significance was accepted at p<0.05.

apoE−/− mice [2] = assay: Histology of lesions: total cells, macrophages (F4/80), extra-cellular matrix (collagen) in apoE−/− mice; assay type: in vivo; details: for % ECM of total lesion area / % Mφ of total lesion area / ECM area / Lesion area (extra-cellular matrix series) / Lesion area (macrophage series) / Mφ area / Lesion area (total cell density series) / Total cells/μm^2 / Total number of cells: mean ± SD
Text: The materials and methods used were essentially as described under Example 1. In addition, for total cell numbers, nuclei were counted in hematoxylin and eosin-stained sections and expressed per lesion area. At the sinus, sections were taken ˜200 μm from the first appearance of the leaflets. Sections at the thoracic and abdominal aorta were taken at the branch point of the 3rd pair of intra-costal arteries and the celiac artery, respectively. For macrophages, 4 μm paraffin sections were deparaffinized, rehydrated and endogenous peroxidase quenched with 3% hydrogen peroxide (15 min). Enzymatic antigen retrieval was performed in trypsin (1 mg/mL) solutions pH 7.7 containing 4 mM CaCl2 and 200 mM Tris for 30 min at 37° C., followed by a 20 min incubation in 5% normal rabbit blocking serum. Sections were then incubated overnight in a humidified chamber and at 4° C. with monoclonal rat-anti-mouse F4/80 antibody (Caltag Laboratories; dilution 1:20), followed by biotinylated rabbit anti-rat IgG (Vector Laboratories; dilution 1:200, 30 min), Vectorstain Elite ABC reagent (Vectorstain Elite ABC Kit, Vector Laboratories; 30 min), and 3,3′-diaminobenzidine substrate-chromogen (Dako Corporation) with counterstaining using Harris hematoxylin. Images were captured using a Zeiss Axiophot Photomicroscope, and the area staining positive for F4/80 antigen expressed as a percentage of the total lesion area. Collagen was determined as described in Histochemical Journal 1979, 11:447-455. Briefly, 4 μm sections were deparaffinized, rehydrated and stained with 0.1% Sirius red (Fast red F3B) in saturated aqueous picric acid (pH 2.0) for 1 h at room temperature and then transferred to a solution of 0.01 N HCl for 2 min followed by counterstaining in Harris hematoxylin for 1 min. Total lesion area were measured from bright field images captured with an Olympus BX60 photomicroscope attached with a SPOT digital camera, whereas the birefringent area staining positive for Sirius red was detected using polarization microscopy and expressed as a percentage of the total lesion area at that site.

[3] = descending aorta, versus control

CC(C)(Sc1cc(C(C)(C)C)c(O)c(C(C)(C)C)c1)Sc1cc(C(C)(C)C)c(O)c(C(C)(C)C)c1 [probucol]
Lesion size (apoE−/− mice [1]; Arch, 1% probucol, mean ± SEM, 17 mice): 121 ± 27^a μm^2 × 10^−3
Lesion size (apoE−/− mice [1]; Sinus, 1% (w/w) probucol in high fat diet, mean ± SEM, 17 mice): 904 ± 56 μm^2 × 10^−3
Lesion size (apoE−/− mice [1]; Thoracic/Abdominal, 1% probucol, mean ± SEM, 17 mice): 7 ± 2^a μm^2 × 10^−3
Lesion size (apoE−/− mice [1]; arch, 1% probucol): 0.12±0.03 mm^2
Inhibition of disease (lesion size) versus control (apoE−/− mice [1]; arch, 1% probucol, not significant): 36%
Lesion size (apoE−/− mice [1]; descending aorta, 1% probucol): 7,300±2,400 μm^2
Inhibition of disease (lesion size) versus control (apoE−/− mice [1]; descending aorta, 1% probucol, p<0.0001): 94%
Lesion size (apoE−/− mice [1]; sinus, 1% probucol): 0.90±0.56 mm^2
Increase in lesion size versus control (apoE−/− mice [1]; sinus, 1% probucol, p<0.01): 33%
% ECM of total lesion area (apoE−/− mice [2]; Sinus, n = 6): 66±13%
% Mφ of total lesion area (apoE−/− mice [2]; Sinus, n = 6): 14 ± 5^a %
ECM area (apoE−/− mice [2]; Sinus, n = 6): 577 ± 126^a μm^2 × 10^−3
Lesion area (extra-cellular matrix series) (apoE−/− mice [2]; Sinus, n = 6): 878 ± 153^a μm^2 × 10^−3
Lesion area (macrophage series) (apoE−/− mice [2]; Sinus, n = 6): 886 ± 89^a μm^2 × 10^−3
Mφ area (apoE−/− mice [2]; Sinus, n = 6): 127 ± 53 ^ μm^2 × 10^−3
% ECM of total lesion area (apoE−/− mice [2]; Sinus, n = 6, listed as Probucol): 66 ± 13^a %
Lesion area (total cell density series) (apoE−/− mice [2]; Sinus, n = 8): 889 ± 254^a μm^2 × 10^−3
Total cells/μm^2 (apoE−/− mice [2]; Sinus, n = 8): 1.7 ± 0.6^a cells/μm^2
Total number of cells (apoE−/− mice [2]; Sinus, n = 8): 1423 ± 441 ^
% ECM of total lesion area (apoE−/− mice [2]; T/A, n = 6): 0.0 ± 0.0^a %
% Mφ of total lesion area (apoE−/− mice [2]; T/A, n = 6): 99.4 ± 1.4 ^ %
ECM area (apoE−/− mice [2]; T/A, n = 6): 0.0 ± 0.0^a μm^2 × 10^−3
Lesion area (extra-cellular matrix series) (apoE−/− mice [2]; T/A, n = 6): 13 ± 3^a μm^2 × 10^−3
Lesion area (macrophage series) (apoE−/− mice [2]; T/A, n = 6): 22 ± 15^a μm^2 × 10^−3
Lesion area (total cell density series) (apoE−/− mice [2]; T/A, n = 6): 22 ± 15^a μm^2 × 10^−3
Mφ area (apoE−/− mice [2]; T/A, n = 6): 21 ± 12^a μm^2 × 10^−3
Total cells/μm^2 (apoE−/− mice [2]; T/A, n = 6): 0.36 ± 0.39^ cells/μm^2
Total number of cells (apoE−/− mice [2]; T/A, n = 6): 10 ± 13^a
Decrease in macrophages (apoE−/− mice [2]; [3]): ~91%
Decrease in total cell numbers (apoE−/− mice [2]; [3]): ~91%
Decrease in percentage of lesion area covered by macrophages (apoE−/− mice [2]; sinus, versus control): ~50%
